In general, IC50 refers to the concentration that gives 50% inhibition.

The subject of one test is Plasmodium falciparum. Briefly: Antimalarial activity against chloroquine-resistant Plasmodium falciparum K1. In kind it is functional, organism-based.
Conditions: not given
In the case of `CC(=O)OC1(C)CCC2CC1OO[C@]2(/C=C\c1ccccc1)c1ccccc1` (stereo partly drawn), the IC50 stood at 23 nM.

Staying with this test, now noted: Plasmodium falciparum, K1.
On to `CC(=O)OC1(C)CCC2CC1OO[C@@]2(CS(=O)(=O)c1ccccc1)c1ccccc1` (stereo partly drawn), for which the midpoint of inhibition, the IC50, lay at 42 nM.
Still for that read-out and setting: under `CC1(O)CCC2CC1OO[C@@]2(CSc1ccc(Cl)cc1)c1ccccc1` (stereo partly drawn) stands 541 nM; under `CC1(O)CCC2CC1OO[C@]2(CS(=O)(=O)c1ccc(Cl)cc1)c1ccccc1` (stereo partly drawn), 225 nM.
The same measure, in the same setting: next, `CC1(O)CCC2CC1OO[C@@]2(CS(=O)(=O)c1ccccc1)c1ccccc1` (stereo partly drawn): 92 nM; `CC(=O)OC1(C)CCC2CC1OO[C@@]2(CSc1ccccc1)c1ccccc1` (stereo partly drawn): 124 nM.
On the same count and under the same terms, under `CC1(O)CCC2CC1OO[C@]2(CSc1ccccc1)c1ccccc1` (stereo partly drawn) stands 298 nM; under `CC1(O)CCC2CC1OO[C@]2(CSc1ccc(Cl)cc1)c1ccccc1` (stereo partly drawn), 247 nM.
For the molecule `CC1(O)CCC2CC1OO[C@]2(CS(=O)(=O)c1ccccc1)c1ccccc1` (stereo partly drawn), the IC50 amounted to 230 nM.
Same read-out and setting: next, `CC(=O)OC1(C)CCC2CC1OO[C@]2(/C=C\c1ccccc1)c1ccccc1` (stereo partly drawn): 34 nM; `O=C(CS(=O)(=O)c1ccccc1)c1ccccc1`: 1000 nM.
Molecule `CC1(O)CCC2CC1OO[C@@]2(CS(=O)(=O)c1ccc(Cl)cc1)c1ccccc1` (stereo partly drawn) returned an IC50 of 107 nM.
On the same count and under the same terms, next, `CC1(O)CCC2CC1OO[C@@]2(CSc1ccccc1)c1ccccc1` (stereo partly drawn): 81 nM; `CC(=O)OC1(C)CCC2CC1OO[C@]2(CSc1ccccc1)c1ccccc1` (stereo partly drawn): 164 nM; `CC(=O)OC1(C)CCC2CC1OO[C@]2(CS(=O)(=O)c1ccccc1)c1ccccc1` (stereo partly drawn): 72 nM.
Still for that read-out and setting: next, `C[C@@H]1C(=O)C[C@H]2C[C@@H]1OO[C@@]2(C)/C=C\c1ccc(C(F)(F)F)cc1C(F)(F)F` [ARTEFLENE]: 76 nM.

A further test relates to Plasmodium falciparum. Briefly: Antimalarial activity against Plasmodium falciparum NF54. In kind it is functional, organism-based.
Conditions: not given
For the molecule `CC1(OCc2ccccc2)CCC2CC1OO[C@@]2(C)CS(=O)(=O)c1ccccc1` (stereo partly drawn), 6.5 nM corresponded to half-maximal inhibition (IC50).
Molecule `C[C@@H]1CC[C@H]2[C@@H](C)C(=O)O[C@@H]3O[C@@]4(C)CC[C@@H]1[C@]32OO4` [ARTEMISININ] gave an IC50 of 8.9 nM.

The record behind these values is ChEMBL document CHEMBL1148657, “Diels-Alder/thiol-olefin co-oxygenation approach to antimalarials incorporating the 2,3-dioxabicyclo[3.3.1]nonane pharmacophore” (Bioorg Med Chem Lett, 2006).
